Holding throughout (assay type): cell-based
One assay deals with mPTP-inactive Daoy cell. The assay is described as follows: CellTiter-Glo cell viability inhibition, mPTP-inactive Daoy cell. Conditions: Homo sapiens, Daoy cell transfected with PPIF shRNA vector.
The next assay has as its system Con-NCI-H82 cell. The assay is described as follows: CellTiter-Glo cell viability inhibition, Con-NCI-H82 cell. Conditions: Homo sapiens, NCI-H82 cell transfected with empty virus vector. An excerpt: (§1) The expression of NNMT protein in NCI-H82 cell was overexpressed by inserting the NNMT gene into NCI-H82 cell using a viral vector, and the NNMT protein-overexpressing NCI-H82 cell (ov-NNMT NCI-H82 cell) was obtained. The control NCI-H82 cell (Con-NCI-H82 cell) was obtained by transfecting NCI-H82 cell with empty virus vector without carrying NNMT gene. The expressing content of NNMT protein in the Con-NCI-H82 cell and ov-NNMT NCI-H82 cell was detected using Western Blot assay (as shown in FIG. 3), it could be seen from FIG. 3 that the NNMT protein was overexpressed in the ov-NNMT NCI-H82 cell compared with the expression level of NNMT protein in the Con-NCI-H82 cell.
Background: In ATP-based viability assays light output follows the ATP content of the culture.

Another assay deals with mPTP-active Daoy cell. The assay is described as follows: CellTiter-Glo cell viability inhibition, mPTP-active Daoy cell. As to conditions: Homo sapiens; Daoy cell transfected with empty virus vector; CellTiter-Glo; read-out: mPTP-active Daoy cell (IC50).
For another assay, the system named is ov-NNMT NCI-H82 cell. The assay is described as follows: CellTiter-Glo cell viability inhibition, ov-NNMT NCI-H82 cell. Conditions: Homo sapiens, NCI-H82 cell overexpressing NNMT protein.
Text: as §1

Structures are written as SMILES.

Broadly, the IC50 is the concentration that inhibits the measured activity by half. As to `c1ccc([P+](c2ccccc2)(c2cccc3[nH]ccc23)c2cccc3cn[nH]c23)cc1` [AB36514], the IC50 in the assay on mPTP-inactive Daoy cell is 1190 nM; in the assay on Con-NCI-H82 cell, 0.26 µM; in the assay with mPTP-active Daoy cell it was 10200 nM; in the assay with ov-NNMT NCI-H82 cell it was 1.35 µM.

Regarding `c1ccc([P+](c2ccccc2)(c2cccc3[nH]ccc23)c2cccc3[nH]cnc23)cc1` [AB35572], the IC50 with mPTP-inactive Daoy cell was determined as 3340 nM; in the assay with Con-NCI-H82 cell, 0.28 µM; with mPTP-active Daoy cell it was 10300 nM; with ov-NNMT NCI-H82 cell, 1.95 µM.

For `Cn1ccc2c([P+](c3ccccc3)(c3ccccc3)c3cccc4c3cnn4C)cccc21` [AB35578], the IC50 turned out to be 1450 nM in the assay on mPTP-inactive Daoy cell, 1.27 µM with Con-NCI-H82 cell, 3800 nM with mPTP-active Daoy cell and 4.93 µM with ov-NNMT NCI-H82 cell.

Consider `c1ccc([P+](c2ccccc2)(c2cccnc2)c2ccc3[nH]ccc3c2)cc1` [AB35473], for which the IC50 with mPTP-inactive Daoy cell worked out at 2950 nM; with Con-NCI-H82 cell it was 3.27 µM; in the assay on mPTP-active Daoy cell it was 18000 nM; in the assay on ov-NNMT NCI-H82 cell, 12.3 µM.

Consider `c1ccc([P+](c2ccccc2)(c2cnc3[nH]ccc3c2)c2cccc3[nH]ccc23)cc1` [AB35563], for which the IC50 came out at 560 nM with mPTP-inactive Daoy cell, 0.46 µM with Con-NCI-H82 cell, 1510 nM in the assay with mPTP-active Daoy cell and 2.09 µM with ov-NNMT NCI-H82 cell.

For the molecule `COc1ccc([P+](c2ccc(OC)cc2)(c2cccc3nn(C)cc23)c2cccc3c2cnn3C)cc1` [AB36445], the IC50 in the assay with mPTP-inactive Daoy cell is 3020 nM; in the assay with Con-NCI-H82 cell, 6.92 µM; with mPTP-active Daoy cell, 13900 nM; in the assay with ov-NNMT NCI-H82 cell it was 18.3 µM.

In the case of `c1ccc([P+](c2ccccc2)(c2ccccc2)c2ccc3cc[nH]c3c2)cc1` [AB35431], the IC50 turned out to be 650 nM in the assay on mPTP-inactive Daoy cell, 0.32 µM in the assay on Con-NCI-H82 cell, 2000 nM in the assay with mPTP-active Daoy cell and 1.03 µM with ov-NNMT NCI-H82 cell.

Take `c1ccc([P+](c2ccccc2)(c2ccncc2)c2ccc3cc[nH]c3c2)cc1` [AB35479]: the IC50 is 6510 nM with mPTP-inactive Daoy cell, 6.36 µM in the assay with Con-NCI-H82 cell, 25100 nM with mPTP-active Daoy cell and 25.5 µM in the assay with ov-NNMT NCI-H82 cell.

With `c1ccc([P+](c2ccccc2)(c2ccc3cc[nH]c3c2)c2ccccn2)cc1` [AB35507], the IC50 turned out to be 1730 nM in the assay with mPTP-inactive Daoy cell, 0.78 µM in the assay on Con-NCI-H82 cell, 4080 nM with mPTP-active Daoy cell and 3.96 µM in the assay with ov-NNMT NCI-H82 cell.

With `c1ccc([P+](c2ccccc2)(c2cccc3[nH]ccc23)c2cccc3[nH]ccc23)cc1` [AB35419], the IC50 with mPTP-inactive Daoy cell is 150 nM; with Con-NCI-H82 cell, 0.05 µM; in the assay on mPTP-active Daoy cell it was 740 nM; with ov-NNMT NCI-H82 cell, 0.56 µM.

Take `COc1ccc([P+](c2ccc(OC)cc2)(c2ccnc3c2ccn3C)c2cccc3c2cnn3C)cc1` [AB36449]: the IC50 in the assay with mPTP-inactive Daoy cell worked out at 570 nM; with Con-NCI-H82 cell it was 1.49 µM; in the assay on mPTP-active Daoy cell, 2160 nM; in the assay on ov-NNMT NCI-H82 cell, 5.91 µM.

`c1ccc([P+](c2ccccc2)(c2ccncc2)c2cccc3[nH]ccc23)cc1` [AB35474]: the IC50 worked out at 2450 nM in the assay with mPTP-inactive Daoy cell, 3.66 µM in the assay with Con-NCI-H82 cell, 18400 nM in the assay with mPTP-active Daoy cell and 13.6 µM in the assay with ov-NNMT NCI-H82 cell.

Turning to `COc1ccc([P+](c2ccc(OC)cc2)(c2ccnc3c2ccn3C)c2ccnc3c2ccn3C)cc1` [AB36448], the IC50 in the assay on mPTP-inactive Daoy cell was 2000 nM; with Con-NCI-H82 cell it was 4.23 µM; with mPTP-active Daoy cell, 7240 nM; in the assay with ov-NNMT NCI-H82 cell, 11.3 µM.

In the case of `c1ccc([P+](c2ccccc2)(c2ccccc2)c2cccc3[nH]ncc23)cc1` [AB35481], the IC50 came out at 2500 nM with mPTP-inactive Daoy cell, 2.45 µM with Con-NCI-H82 cell, 16700 nM in the assay with mPTP-active Daoy cell and 9.82 µM with ov-NNMT NCI-H82 cell.

Regarding `COc1ccc([P+](c2ccc(OC)cc2)(c2ccc(OC)cc2)c2cccc3c2ccn3C)cc1` [AB36411], the IC50 in the assay on mPTP-inactive Daoy cell was 680 nM; in the assay with Con-NCI-H82 cell, 0.17 µM; with mPTP-active Daoy cell, 520 nM; in the assay with ov-NNMT NCI-H82 cell, 0.16 µM.

On to `Cn1ccc2c([P+](c3ccccc3)(c3ccccc3)c3ccccc3)cccc21` [AB35573], for which the IC50 was 240 nM in the assay on mPTP-inactive Daoy cell, 0.14 µM in the assay with Con-NCI-H82 cell, 1260 nM in the assay on mPTP-active Daoy cell and 1.37 µM in the assay on ov-NNMT NCI-H82 cell.

In the case of `c1ccc(P(=[N+]=P(c2ccccc2)(c2ccccc2)c2ccccc2)(c2ccccc2)c2ccccc2)cc1` [SJ00002], the IC50 in the assay with mPTP-inactive Daoy cell stood at 460 nM; in the assay on Con-NCI-H82 cell, 0.18 µM; with mPTP-active Daoy cell, 440 nM; in the assay on ov-NNMT NCI-H82 cell it was 0.21 µM.

Regarding `c1ccc([P+](c2ccccc2)(c2ccc3[nH]ccc3c2)c2ccc3[nH]ncc3c2)cc1` [AB35529], the IC50 in the assay with mPTP-inactive Daoy cell worked out at 880 nM; in the assay on Con-NCI-H82 cell, 0.38 µM; in the assay with mPTP-active Daoy cell it was 4110 nM; in the assay with ov-NNMT NCI-H82 cell it was 1.87 µM.

As for `c1ccc([P+](c2ccccc2)(c2ccc3cc[nH]c3c2)c2ccc3nc[nH]c3c2)cc1` [AB35548], the IC50 was determined as 2640 nM with mPTP-inactive Daoy cell, 2.22 µM in the assay on Con-NCI-H82 cell, 8090 nM in the assay with mPTP-active Daoy cell and 7.14 µM in the assay with ov-NNMT NCI-H82 cell.

For the molecule `c1ccc([P+](c2ccccc2)(c2ccccc2)c2ccoc2)cc1` [AB36533], the IC50 in the assay with mPTP-inactive Daoy cell is 3520 nM; in the assay with Con-NCI-H82 cell, 3.09 µM; in the assay on mPTP-active Daoy cell it was 11900 nM; in the assay with ov-NNMT NCI-H82 cell it was 8.97 µM.

Take `c1ccc([P+](CC[P+](c2ccccc2)(c2ccccc2)c2ccccc2)(c2ccccc2)c2ccccc2)cc1` [SJ00003]: the IC50 in the assay with mPTP-inactive Daoy cell turned out to be 5180 nM; in the assay with Con-NCI-H82 cell, 3.24 µM; with mPTP-active Daoy cell it was 4910 nM; in the assay on ov-NNMT NCI-H82 cell it was 2.98 µM.

Turning to `c1ccc([P+](c2ccccc2)(c2cccnc2)c2ccc3cc[nH]c3c2)cc1` [AB35472], the IC50 was found to be 10700 nM with mPTP-inactive Daoy cell, 8.11 µM with Con-NCI-H82 cell, 38400 nM with mPTP-active Daoy cell and 19.4 µM in the assay with ov-NNMT NCI-H82 cell.

`COc1ccc([P+](c2ccc(OC)cc2)(c2cccc3nn(C)cc23)c2cccc3nn(C)cc23)cc1` [AB36471]: the IC50 stood at 1480 nM in the assay with mPTP-inactive Daoy cell, 2.86 µM in the assay on Con-NCI-H82 cell, 6360 nM in the assay on mPTP-active Daoy cell and 11 µM in the assay with ov-NNMT NCI-H82 cell.

As for `c1ccc([P+](c2ccccc2)(c2ccccc2)c2cccc3[nH]ccc23)cc1` [AB35450], the IC50 in the assay on mPTP-inactive Daoy cell was 100 nM; in the assay on Con-NCI-H82 cell, 0.23 µM; in the assay with mPTP-active Daoy cell, 430 nM; in the assay with ov-NNMT NCI-H82 cell, 1.56 µM.

For `COc1ccc([P+](c2ccc(OC)cc2)(c2cccc3[nH]ccc23)c2cccc3[nH]ccc23)cc1` [AB35596], the IC50 was 250 nM with mPTP-inactive Daoy cell, 0.25 µM in the assay with Con-NCI-H82 cell, 1320 nM in the assay with mPTP-active Daoy cell and 1.56 µM in the assay on ov-NNMT NCI-H82 cell.

For `c1ccc([P+](c2ccccc2)(c2cc3cc[nH]c3cn2)c2cccc3[nH]ccc23)cc1` [AB35588], the IC50 in the assay on mPTP-inactive Daoy cell was 380 nM; in the assay on Con-NCI-H82 cell it was 0.21 µM; in the assay on mPTP-active Daoy cell it was 1140 nM; in the assay with ov-NNMT NCI-H82 cell, 1.78 µM.

In the case of `c1ccc([P+](c2ccccc2)(c2ccccc2)c2cccc3cc[nH]c23)cc1` [AB35449], the IC50 in the assay on mPTP-inactive Daoy cell was 2440 nM; in the assay on Con-NCI-H82 cell, 2.17 µM; in the assay with mPTP-active Daoy cell, 7120 nM; in the assay on ov-NNMT NCI-H82 cell, 6.47 µM.

As to `c1ccc([P+](c2ccccc2)(c2cccc3[nH]ncc23)c2cccc3[nH]ncc23)cc1` [AB35480], the IC50 with mPTP-inactive Daoy cell was 6260 nM; in the assay with Con-NCI-H82 cell, 13.8 µM; with mPTP-active Daoy cell, over 50000 nM; with ov-NNMT NCI-H82 cell, 40.1 µM.

In the case of `c1ccc([P+](c2ccccc2)(c2ccc3[nH]ccc3c2)c2ccc3[nH]ccc3c2)cc1` [AB35451], the IC50 in the assay on mPTP-inactive Daoy cell stood at 280 nM; in the assay with Con-NCI-H82 cell it was 0.13 µM; in the assay with mPTP-active Daoy cell it was 1220 nM; with ov-NNMT NCI-H82 cell, 0.96 µM.

The record behind these values is US20250304608A1, “PHOSPHORUS COMPOUND AND USE THEREOF” (SHANGHAI SHIJIANG BIOTECHNOLOGY CO., LTD., priority 2022, published 2025).
